Assay results reported in ChEMBL document CHEMBL4616723, “Discovery of Antibacterials That Inhibit Bacterial RNA Polymerase Interactions with Sigma Factors” (J Med Chem, 2020).
≈ marks a conversion by molar mass, not a printed value.

Experiments:
Format in all cases: functional
[1] = tested on: Pseudomonas aeruginosa; experiment: Antibacterial activity against Pseudomonas aeruginosa ATCC 27853 after 20 hrs by CLSI based-broth microdilution method; details: ATCC 27853, 20 h
[2] = tested on: Enterobacter cloacae; experiment: Antibacterial activity against Enterobacter cloacae ATCC 13047 after 20 hrs by CLSI based-broth microdilution method; details: subsp. cloacae ATCC 13047, 20 h
[3] = tested on: Acinetobacter baumannii; experiment: Antibacterial activity against Acinetobacter baumannii ATCC 19606 after 20 hrs by CLSI based-broth microdilution method; details: ATCC 19606 = CIP 70.34 = JCM 6841, 20 h
[4] = tested on: Klebsiella pneumoniae; experiment: Antibacterial activity against Klebsiella pneumoniae ATCC 700603 after 20 hrs by CLSI based-broth microdilution method; details: ATCC 700603, 20 h
[5] = tested on: Streptococcus pneumoniae; experiment: Antibacterial activity against Streptococcus pneumoniae ATCC 49619 after 20 hrs by CLSI based-broth microdilution method; details: ATCC 49619, 20 h
[6] = tested on: Escherichia coli; experiment: Antibacterial activity against Escherichia coli ATCC 25922 after 20 hrs by CLSI based-broth microdilution method; details: ATCC 25922, 20 h

Row | MIC [1] [µg/mL] | MIC [2] [µg/mL] | MIC [3] [µg/mL] | MIC [4] [µg/mL] | MIC [5] [µg/mL] | MIC [6] [µg/mL] | Structure (SMILES)
1 | > 256 | > 256 | > 256 | > 256 | 64 (≈ 162 µM) | > 256 | Nc1ccccc1Sc1ccc(CNc2cccc(C(=O)O)c2)cc1[N+](=O)[O-]
2 | > 256 | > 256 | > 256 | > 256 | 256 (≈ 612 µM) | > 256 | CC(C)(C)c1cccc(Nc2ccc(C(=O)c3ccccc3C(=O)O)cc2[N+](=O)[O-])c1
3 | > 256 | > 256 | > 256 | > 256 | 128 (≈ 340 µM) | > 256 | Cc1cccc(Nc2ccc(C(=O)c3ccccc3C(=O)O)cc2[N+](=O)[O-])c1
4 | > 256 | > 256 | > 256 | > 256 | > 256 | > 256 | N#Cc1ccccc1NCc1ccc(Sc2ccc(Cl)c(Cl)c2)c([N+](=O)[O-])c1
5 | > 256 | > 256 | > 256 | > 256 | > 256 | > 256 | COc1ccc(Nc2ccc(C(=O)c3ccccc3C(=O)O)cc2[N+](=O)[O-])cc1
6 | > 256 | > 256 | > 256 | > 256 | 128 (≈ 313 µM) | > 256 | COc1ccccc1Sc1ccc(C(=O)c2ccccc2C(=O)O)cc1[N+](=O)[O-]
7 | > 256 | > 256 | > 256 | > 256 | 256 (≈ 647 µM) | > 256 | Nc1ccccc1Sc1ccc(CNc2ccc(C(=O)O)cc2)cc1[N+](=O)[O-]
8 | > 256 | > 256 | > 256 | > 256 | > 256 | > 256 | NC(=O)c1cccc(NCc2ccc(Sc3ccc(Cl)c(Cl)c3)c([N+](=O)[O-])c2)c1
9 | > 256 | > 256 | > 256 | > 256 | 256 (≈ 529 µM) | > 256 | O=C(O)c1cc(NCc2ccc(Sc3ccc(Cl)c(Cl)c3)c([N+](=O)[O-])c2)ccc1Cl
10 | > 256 | > 256 | > 256 | > 256 | 64 (≈ 132 µM) | > 256 | NS(=O)(=O)c1cccc(NCc2ccc(Sc3ccc(Cl)c(Cl)c3)c([N+](=O)[O-])c2)c1
11 | > 256 | > 256 | > 256 | > 256 | 256 (≈ 722 µM) | > 256 | O=C(O)c1ccccc1C(=O)c1ccc(N2CCCCC2)c([N+](=O)[O-])c1
12 | > 256 | > 256 | > 256 | > 256 | > 256 | > 256 | O=C(Nc1ccccc1C(=O)O)c1ccc(Sc2ccc(Cl)c(Cl)c2)c([N+](=O)[O-])c1
13 | > 256 | > 256 | > 256 | > 256 | 32 (≈ 71.4 µM) | > 256 | O=C(O)c1ccccc1C(=O)c1ccc(Sc2ccc(Cl)cc2Cl)c([N+](=O)[O-])c1
14 | > 256 | > 256 | > 256 | > 256 | > 256 | > 256 | O=C(O)c1ccccc1C(=O)c1ccc(N2CCOCC2)c([N+](=O)[O-])c1
15 | > 256 | > 256 | > 256 | > 256 | 64 (≈ 162 µM) | > 256 | Nc1ccccc1Sc1ccc(CNc2ccccc2C(=O)O)cc1[N+](=O)[O-]
16 | > 256 | > 256 | > 256 | > 256 | > 256 | > 256 | O=C(O)c1ccc(F)c(NCc2ccc(Sc3ccc(Cl)c(Cl)c3)c([N+](=O)[O-])c2)c1
17 | > 256 | > 256 | > 256 | > 256 | > 256 | > 256 | O=[N+]([O-])c1cc(CNc2cccc(CO)c2)ccc1Sc1ccc(Cl)c(Cl)c1
18 | > 256 | > 256 | > 256 | > 256 | 256 (≈ 645 µM) | > 256 | O=C(O)c1ccccc1C(=O)c1ccc(Nc2cccc(Cl)c2)c([N+](=O)[O-])c1
19 | > 256 | > 256 | > 256 | > 256 | 16 (≈ 29.9 µM) | > 256 | O=C(O)c1ccc(N2CCOCC2)c(NCc2ccc(Sc3ccc(Cl)c(Cl)c3)c([N+](=O)[O-])c2)c1
20 | > 256 | > 256 | > 256 | > 256 | 128 (≈ 313 µM) | > 256 | Nc1ccccc1Sc1ccc(C(=O)Nc2cccc(C(=O)O)c2)cc1[N+](=O)[O-]
21 | > 256 | > 256 | > 256 | > 256 | 32 (≈ 78.5 µM) | > 256 | Cc1ccc(Sc2ccc(C(=O)c3ccccc3C(=O)O)cc2[N+](=O)[O-])c(C)c1

Row | MIC [1] [µg/mL] | MIC [2] [µg/mL] | MIC [3] [µg/mL] | MIC [4] [µg/mL] | MIC [5] [µg/mL] | MIC [6] [µg/mL] | Structure (SMILES)
22 | > 256 | > 256 | > 256 | > 256 | 128 (≈ 292 µM) | > 256 | Cc1cccc([N+](=O)[O-])c1Sc1ccc(C(=O)c2ccccc2C(=O)O)cc1[N+](=O)[O-]
23 | > 256 | > 256 | > 256 | > 256 | 256 (≈ 553 µM) | > 256 | O=C(O)c1cccc(NC(=O)c2ccc(Sc3ccc(Cl)c(Cl)c3)c([N+](=O)[O-])c2)c1
24 | > 256 | > 256 | > 256 | > 256 | 256 (≈ 668 µM) | > 256 | Cc1occc1Sc1ccc(C(=O)c2ccccc2C(=O)O)cc1[N+](=O)[O-]
25 | > 256 | > 256 | > 256 | > 256 | 256 (≈ 489 µM) | > 256 | CCN(CC)C(=O)c1ccc(Sc2ccc(C(=O)c3ccccc3C(=O)O)cc2[N+](=O)[O-])c([N+](=O)[O-])c1
26 | > 256 | > 256 | > 256 | > 256 | 32 (≈ 64.2 µM) | > 256 | O=C(Nc1cccc(Sc2ccc(C(=O)c3ccccc3C(=O)O)cc2[N+](=O)[O-])c1)c1ccccc1
27 | > 256 | > 256 | > 256 | > 256 | 256 (≈ 680 µM) | > 256 | O=C(O)c1ccccc1C(=O)c1ccc(NCc2ccccc2)c([N+](=O)[O-])c1
28 | > 256 | > 256 | > 256 | > 256 | 128 (≈ 322 µM) | > 256 | O=C(O)c1ccccc1C(=O)c1ccc(Sc2ccccc2F)c([N+](=O)[O-])c1
29 | > 256 | > 256 | > 256 | > 256 | 256 (≈ 649 µM) | > 256 | O=C(O)c1ccccc1C(=O)c1ccc(NCc2ccccc2F)c([N+](=O)[O-])c1
30 | > 256 | > 256 | > 256 | > 256 | 64 (≈ 156 µM) | > 256 | Nc1ccccc1Sc1ccc(C(=O)Nc2ccccc2C(=O)O)cc1[N+](=O)[O-]
31 | > 256 | > 256 | > 256 | > 256 | > 256 | > 256 | NC(=O)c1cccc(Nc2ccc(C(=O)c3ccccc3C(=O)O)cc2[N+](=O)[O-])c1
32 | > 256 | > 256 | > 256 | > 256 | 64 (≈ 148 µM) | > 256 | O=C(O)c1ccccc1C(=O)c1ccc(Nc2ccc(Cl)c(Cl)c2)c([N+](=O)[O-])c1
33 | > 256 | > 256 | > 256 | > 256 | 16 (≈ 34.5 µM) | > 256 | Cc1ccc(C(=O)O)cc1NCc1ccc(Sc2ccc(Cl)c(Cl)c2)c([N+](=O)[O-])c1
34 | > 256 | > 256 | > 256 | > 256 | 256 (≈ 707 µM) | > 256 | O=C(O)c1ccccc1C(=O)c1ccc(Nc2ccccc2)c([N+](=O)[O-])c1
35 | > 256 | > 256 | > 256 | > 256 | > 256 | > 256 | NC(=O)c1ccccc1NCc1ccc(Sc2ccc(Cl)c(Cl)c2)c([N+](=O)[O-])c1
36 | > 256 | > 256 | > 256 | > 256 | 256 (≈ 587 µM) | > 256 | CC(=O)Nc1cccc(Sc2ccc(C(=O)c3ccccc3C(=O)O)cc2[N+](=O)[O-])c1
37 | > 256 | > 256 | > 256 | > 256 | 32 (≈ 76.5 µM) | > 256 | Nc1cc(C(=O)c2ccccc2C(=O)O)ccc1Sc1ccc(Cl)c(Cl)c1
38 | > 256 | > 256 | > 256 | > 256 | 32 (≈ 73.3 µM) | > 256 | CC(C)Nc1cccc(Sc2ccc(C(=O)c3ccccc3C(=O)O)cc2[N+](=O)[O-])c1
39 | > 256 | > 256 | > 256 | > 256 | > 256 | > 256 | Nc1ccccc1Nc1ccc(C(=O)c2ccccc2C(=O)O)cc1[N+](=O)[O-]
40 | > 256 | > 256 | > 256 | > 256 | > 256 | > 256 | O=C(O)c1ccccc1C(=O)c1ccc(Nc2cccc(CO)c2)c([N+](=O)[O-])c1
41 | > 256 | > 256 | > 256 | > 256 | > 256 | > 256 | NC1CCCCC1Nc1ccc(C(=O)c2ccccc2C(=O)O)cc1[N+](=O)[O-] (configuration not stated)
42 | > 256 | > 256 | > 256 | > 256 | > 256 | > 256 | O=C(O)c1ccccc1C(=O)c1ccc(Nc2nccs2)c([N+](=O)[O-])c1
